Experimental data as given in patent US8309612B2, “Method for treating age-related macular degeneration” (Santen Pharmaceutical Co., Ltd., priority 2007, dated 2012).

Experiments:
[1] = tested on: ARPE-19 cells (a human retinal pigment epithelial cell line); experiment: Protective effect on hydrogen peroxide-induced cell damage in ARPE-19 cells; assay type: cell-based; details: for Cell protective effect on hydrogen peroxide-induced cell damage (in words): 6.25 μM or 12.5 μM, hydrogen peroxide 250 μM
Method: Oxidative stress causes retinal pigment epithelial dysfunction and is considered to be one of the causes of development or progression of AMD (Proc. Natl. Acad. Sci. USA, 2006; 103: 11282-11287). Therefore, by using ARPE-19 cells (a human retinal pigment epithelial cell line), the protective effect of Ebselen on hydrogen peroxide-induced cell damage was evaluated. In addition, the effects of quercetin and edaravone which are compounds generally known to have an antioxidative activity were also evaluated at the same time, and comparison study was performed.
(§1) ARPE-19 cells were seeded in a 96-well plate at 5×10^3 cells/well and cultured for 24 hours under the conditions of 37° C. in a 5% CO2/95% air atmosphere. As a culture medium for ARPE-19, DMEM/F12 containing 10% fetal bovine serum, 2 mM L-glutamine and 100 U/mL penicillin and 100 μg/mL streptomycin was used. Subsequently, the culture medium was removed and exchanged with a culture medium containing Ebselen, quercetin or edaravone, or a vehicle culture medium. Incidentally, each compound was dissolved in DMSO and diluted to 1000-fold with the culture medium to prepare a culture medium containing each compound at 6.25 μM or 12.5 μM. The vehicle culture medium was prepared by diluting DMSO without containing the compound to 1000-fold with the culture medium. After the cells were cultured for 24 hours under the conditions of 37° C. in a 5% CO2/95% air atmosphere, the culture medium was removed and exchanged with a culture medium containing hydrogen peroxide (250 μM). After the cells were further cultured for 24 hours under the above-mentioned conditions, the cell viability was measured. In the measurement, Cell Counting Kit-8 (Dojin Kagaku) was used.
(§2) The mean±the standard error (%) of the cell viability of each compound-treated group was expressed by taking the mean value of the cell viability of the untreated cells as 100%. The case number in each group is 4.

ARPE-19 cells = experiment: Protective effect on HNE-induced cell damage in ARPE-19 cells; assay type: cell-based, human; details: for Cell protective effect on HNE-induced cell damage (in words): 12.5 μM, HNE 100 μM
Source text: It is known that reactive oxygen species promote membrane lipid peroxidation, resulting in production of HNE (Exp. Eye. Res., 2006; 83: 165-175). HNE forms a covalent bond with a cysteine, lysine or histidine side chain of a protein and inhibits the normal function of the protein, and therefore has a high cytotoxic activity (Invest. Opthalmol. Vis. Sci. 2007; 48: 3469-3479). It is reported that an HNE-modified protein is present also in drusen beneath the retina which is considered to be a deposit inducing AMD, and it is considered to cause retinal pigment epithelial cell damage and also considered to be one of the causes of development or progression of a disease attributed to retinal pigment epithelial damage (Mol. Vis., 2005; 11: 1122-1134, Invest. Opthalmol. Vis. Sci., 2003; 44: 3663-3668, FEBS Lett., 2002; 528: 217-221). Therefore, by using ARPE-19 cells, the protective effect of Ebselen on HNE-induced cell damage was evaluated. In addition, the effects of quercetin and edaravone which are compounds generally known to have an antioxidative activity were also evaluated at the same time, and comparison study was performed.
as §1, with “at” for “at 6.25 μM or”, “HNE (100” for “hydrogen peroxide (250”
as §2

[2] = tested on: choroidal neovascularization; experiment: Rat model of krypton laser-induced choroidal neovascularization; assay type: in vivo; details: for Inhibition rate (%): BID, oral, 12 days, choroidal neovascularization incidence on day 7 after photocoagulation vs vehicle
Method: The usefulness of Ebselen was evaluated using a rat model of laser-induced choroidal neovascularization.
A rat was given general anesthesia by intramuscular administration of 1 ml/kg of a mixed solution of a 5% (w/v) ketamine hydrochloride injection solution and a 2% xylazine hydrochloride injection solution (7:1), and a 0.5% (w/v) tropicamide-0.5% phenylephrine hydrochloride ophthalmic solution was instilled into the eyes to cause mydriasis, and then, photocoagulation was performed with a krypton laser photocoagulation apparatus. The photocoagulation was performed in a posterior fundus at eight spots per eye sparsely by focusing on the retinal deep layer avoiding thick retinal blood vessels (coagulation conditions: spot size: 100 μm, output: 100 mW, coagulation time: 0.1 sec). After the photocoagulation, the ocular fundus was photographed, and the site where the laser was irradiated was confirmed. […]
On day 7 after photocoagulation, each rat was given general anesthesia by intramuscular administration of 1 ml/kg of a mixed solution of a 5% (w/v) ketamine hydrochloride injection solution and a 2% xylazine hydrochloride injection solution (7:1), and a 0.5% (w/v) tropicamide-0.5% phenylephrine hydrochloride ophthalmic solution was instilled into the eyes to cause mydriasis, and then, 0.1 ml of a 10% fluorescein solution was injected into the tail vein, and fluorescence fundus photography was performed. In the fluorescence fundus photography, a spot where fluorescence leakage was not observed (absence of neovascularization) was judged as negative, and a spot where fluorescence leakage was observed was judged as positive. When there are two photocoagulation sites where a little fluorescence leakage was observed, they were judged as positive (presence of neovascularization). The choroidal neovascularization incidence rate (%) was calculated from the number of positive spots relative to the eight laser irradiation spots in accordance with Equation 1, and the inhibition rate (%) of the drug to be evaluated was calculated in accordance with Equation 2. […]

[3] = tested on: ischemia-induced neovascularization in hindlimb tissues; details: hindlimb tissues of mice; cited from earlier work
[4] = tested on: carotid artery remodeling and neovascularization; details: p22phox transgenic mice; cited from earlier work
renal neovascularization = details: ZDF rats, repeated administration; cited from earlier work

Structure (SMILES)	Cell protective effect on hydrogen peroxide-induced cell damage (in words) [1]	Cell protective effect on HNE-induced cell damage (in words) (ARPE-19 cells)	Inhibition rate (%) ([2]; each dose: 5 mg/kg)	Inhibition rate (%) ([2]; each dose: 15 mg/kg)	Effect on choroidal neovascularization (in words) ([2]; rat models of laser-induced choroidal neovascularization, 5 or 15 mg/kg BID oral)	Effect on ischemia-induced neovascularization (in words) [3]	Effect on carotid artery remodeling and neovascularization (in words) [4]	Effect on renal neovascularization (in words) (renal neovascularization)	viability at 6.25 µM ([1]; Homo sapiens, ARPE-19, compound 6.25 μM, 24 h pretreatment, then hydrogen peroxide 250 μM 24 h, untreated cells = 100%, mean ± standard error) [%]	viability at 12.5 µM ([1]; Homo sapiens, ARPE-19, compound 12.5 μM, 24 h pretreatment, then hydrogen peroxide 250 μM 24 h, untreated cells = 100%, mean ± standard error) [%]	viability at 12.5 µM (ARPE-19 cells; Homo sapiens, ARPE-19, compound 12.5 μM, 24 h pretreatment, then HNE 100 μM 24 h, untreated cells = 100%, mean ± standard error) [%]
CC1=NN(c2ccccc2)C(=O)C1 [Edaravone, edaravone]	not found to have a cell protective effect at either concentration	not found to have a cell protective effect									
O=c1c2ccccc2[se]n1-c1ccccc1 [Ebselen, 2-phenyl-1,2-benzisoselenazol-3(2H)-one]	strongly protected the cells against hydrogen peroxide-induced cell damage in a concentration-dependent manner	strongly protected the cells against HNE-induced cell damage	26.9	28.9	inhibits choroidal neovascularization	inhibited ischemia-induced neovascularization	inhibited endogenous hydrogen peroxide-induced carotid artery remodeling and neovascularization	renal neovascularization was restored			
O=c1c(O)c(-c2ccc(O)c(O)c2)oc2cc(O)cc(O)c12 [Quercetin, quercetin]	not found to have a cell protective effect at either concentration	not found to have a cell protective effect							8 ± 0.1	3.8 ± 0.4	28.6 ± 0.9
